Data reported in patent US20020019336A1, “Sustained release drug compositions” (priority 2000, published 2002).

System: neovascularization
Test: neovascularization after subcutaneous injection or implantation in rats
Format: in vivo
Settings: back subcutaneous tissue, seven days after administration, 1 μg bFGF
Procedure: The compositions listed in Table 1 below were generated essentially according to Example 9, with modifications as indicated.
All compositions, including controls, were injected or implanted into the back subcutaneous tissue of rats. It was known that bFGF promotes neovascularization. Seven days after administration, each rat was evaluated for neovascularization at the area peripheral to the site of injection or implantation.
To distinguish newly synthesized blood vessels from pre-existing ones, lipid microspheres were injected into […] just superficial to the pre-existing capillary bed early in the experiment (at day 0). At the end of the experiment, the neovascular capillaries, if any, would reside superficial to the microspheres. Thus, new capillaries were easily identified by seeing whether there was vascularization above (superficial to) the microspheres at the end of the experiment.

Substance: basic fibroblast growth factor [bFGF alone]
- neovascularization at area peripheral to site of injection or implantation: no neovascularization
